Source: patent US11260054B2, “Methods of treatment of cancer” (Pano Therapeutics, Inc., priority 2018, dated 2022)
Where two headings read alike, the source gives them in different places.

Key:
[1] = Pharmacokinetic parameters in mice, IV and oral; format: in vivo, BALB/c mice; details: for Vd: BALB/c, iv
Description: Fed BALB/c mice were administered either 2 mg/kg of 5 m intravenously via the tail vein or 10 mg/kg of 5 m orally. For both conditions, 5 m was dissolved in 10% DMSO/50% PEG400/40% Water. Blood was sampled at various timepoints after the compound was administered and was analyzed using AB Sciex API 4000 LC/MS/MS in positive ion mode.

MiaPaCa-2 Cell Line = assay: Pancreatic cancer cell survival assay, MiaPaCa-2 (CellTiter-Glo); format: cell-based; details: 72 hrs incubation, read-out: Absolute IC50
Description: (§1) PANC-1 and MiaPaCa-2 were grown overnight at 37° C., 5% CO2 and 95% humidity. PANC-1 was grown in DMEM+10% FBS and MIA PaCa-2 was grown in DMEM+10% FBS+2.5% H. Cells from each cell line were then incubated for 72 hrs in humidified incubator at 37° C. and 5% CO2 with 5 m, AA6, metformin, or cisplatin at concentrations ranging from 100 μM-50 nM. Each condition was done in triplicate, and the structures of the compounds were not known to the experimenters. After the incubation, cells were lysed with CellTiter-Glo® Luminescent Cell Viability Assay reagent (Promega) and luminescence was read using an EnVision plate reader (PerkinElmer). Cell viability was plotted with GraphPad Prism version 5 and the IC50 was calculated for each compound with each cell line. The graphical curves were fitted using a nonlinear regression model with a sigmoidal dose response.

PANC-1 Cell Line = assay: Pancreatic cancer cell survival assay, PANC-1 (CellTiter-Glo); format: cell-based; details: 72 hrs incubation, read-out: Absolute IC50
Description: as §1

HTC116 Cell Line = assay: Colorectal cancer cell survival assay (CellTiter-Glo); format: cell-based; details: 72 hrs incubation
Description: HTC116 cells were grown overnight at 37° C., 5% CO2. Cells were then incubated for 72 hrs in humidified incubator at 37° C. and 5% CO2 with 5 m, AA6, metformin, S1QEL 1.1, or cisplatin at concentrations ranging from 100 μM-50 nM. Each condition was done in triplicate, and the structures of the compounds were not known to the experimenters. After the incubation, cells were lysed with CellTiter-Glo® Luminescent Cell Viability Assay reagent (Promega) and luminescence was read using an Envision plate reader.
The IC50s of 5 m, AA6, and cisplatin were similar with 5 m and AA6 having slightly lower IC50s. Metformin and S1Qel 1.1 had dramatically larger IC50s than 5 m, AA6, or cisplatin. Cell viability was plotted with GraphPad Prism version 5 and the IC50 was calculated for each compound. The graphical curves were fitted using a nonlinear regression model with a sigmoidal dose response.

HCT116 cells = assay: Hypoxic cancer cell survival assay, normoxic vs hypoxic (CellTiter-Glo); format: cell-based; details: for IC50: 72 hrs, read-out: Absolute IC50
Description: HCT116 cells were cultured in an atmosphere of 37° C., 5% CO2, 95% humidity, and with either 1% O2 (hypoxic) or 20% O2 (normoxic). No antibiotics were used in the cell culturing. HeLa cells were grown in parallel and samples were taken after 48 h and 72 h to confirm Hypoxia-inducible factor-1α (HIF-1α) expression by western blot.
HCT116 cells were then seeded on 6-well plates and incubated at 37° C., 5% CO2, and 95% humidity overnight. Cells previously cultured under hypoxic conditions were again incubated with 1% O2, and cells previously cultured under normoxic conditions were again incubated with 20% O2.
as §1, with “Hypoxic” for “PANC-1”, “normoxic cells” for “MiaPaCa-2 were grown overnight at 37° C., 5% CO2 and 95% humidity. PANC-1 was grown in DMEM+10% FBS and MIA PaCa-2 was grown in DMEM+10% FBS+2.5% H. Cells from each cell line”, “C., 5% CO2, 95% humidity,” for “C.”, “either 1% O2 (hypoxic) or 20% O2 (normoxic)” for “5% CO2”, “1 mM-50” for “100 μM-50”

[2] = mouse, blood, IV, 2 mg/kg, fed BALB/c mice, mean N = 3
[3] = mouse, blood, oral, 10 mg/kg, fed BALB/c mice, mean N = 3
[4] = HCT116, hypoxic conditions (1% O2)
[5] = Homo sapiens, HCT-116, 72 h, HCT116, hypoxic conditions (1% O2)

## N/C(=N\C(=O)c1nc(Cl)c(NCc2ccc(I)cc2)nc1N)NCCCCc1ccccc1 [5m, (E)-3-amino-N-(amino((4-phenylbutyl)amino)methylene)-6-chloro-5-((4-iodobenzyl)amino)pyrazine-2-carboxamide]
[1]; 2 mg/kg intravenously or 10 mg/kg orally, BALB/c mice
  apparent abnormal symptoms or toxicity during the assay: did not result in any apparent abnormal symptoms or toxicity
[1]; mouse, blood, 2 mg/kg, IV, 2 mg/kg, fed BALB/c mice, mean N = 3, read-out: Vss
  Vd: 9.41 L/kg
[1]; mouse, blood, 2 mg/kg, IV, 2 mg/kg, fed BALB/c mice, mean N = 3, read-out: Vz
  Vd: 17.5 L/kg
[1]; IV, 2 mg/kg, fed BALB/c mice, mean N = 3
  AUC Extr: 2.47%
[1]; mouse, blood, IV, 2 mg/kg via tail vein, fed BALB/c mice, mean N = 3
  half-life: 5.3 h
[1]; [2]
  AUC(0-inf): 0.871 µg·h/mL
  AUC(0-t): 0.849 µg·h/mL
  C0: 3.87 µg/mL
  MRT inf: 4.1 h
  clearance: 2.3 L/h/kg
[1]; [3]
  AUC(0-inf): 0.0415 µg·h/mL
  AUC(0-t): 0.0328 µg·h/mL
  CL/F: 242 L/h/kg
  Cmax: 0.0183 µg/mL
  half-life: 3.62 h
[1]; mouse, blood, oral, 10 mg/kg, fed BALB/c mice, mean N = 3, read-out: Vz/F
  Vd/F: 1270 L/kg
[1]; oral 10 mg/kg vs IV 2 mg/kg, fed BALB/c mice, mean N = 3
  F: 0.773%
MiaPaCa-2 Cell Line
  IC50: 4.3 µM
MiaPaCa-2 Cell Line; Homo sapiens, MIA PaCa-2, 72 h
  IC50: < 6 µM
PANC-1 Cell Line
  IC50: 4.7 µM
PANC-1 Cell Line; Homo sapiens, PANC-1, 72 h
  IC50: < 6 µM
HTC116 Cell Line
  IC50: 3.2 µM
HCT116 cells; [4]
  IC50: 1.7 µM
HCT116 cells; HCT116, normoxic conditions (20% O2)
  IC50: 0.7 µM

## CN(CCCCCCc1ccccc1)CCCCNC(=O)c1nc(Cl)c(NCc2ccc(Cl)cc2)nc1N [AA6, 3-amino-6-chloro-5-((4-chlorobenzyl)amino)-N-(4-(methyl(6-phenylhexyl)amino)butyl)pyrazine-2-carboxamide]
MiaPaCa-2 Cell Line
  IC50: 5.1 µM
MiaPaCa-2 Cell Line; Homo sapiens, MIA PaCa-2, 72 h
  IC50: < 6 µM
PANC-1 Cell Line
  IC50: 5.9 µM
PANC-1 Cell Line; Homo sapiens, PANC-1, 72 h
  IC50: < 6 µM
HTC116 Cell Line
  IC50: 3.6 µM
HCT116 cells; [4]
  IC50: 5 µM
HCT116 cells; [5]
  IC50: < 6 µM

## N.N.[Cl][Pt][Cl] [Cisplatin, reference compound]
MiaPaCa-2 Cell Line; listed as cisplatin
  IC50: 14.2 µM
MiaPaCa-2 Cell Line
  IC50: 12.2 µM
PANC-1 Cell Line; listed as cisplatin
  IC50: 12.2 µM
PANC-1 Cell Line
  IC50: 14.2 µM
HTC116 Cell Line
  IC50: 4.3 µM

## CN(C)C(=N)N=C(N)N [Metformin, reference compound]
MiaPaCa-2 Cell Line; Homo sapiens, MIA PaCa-2, 72 h
  IC50: > 5000 µM
PANC-1 Cell Line; Homo sapiens, PANC-1, 72 h
  IC50: > 5000 µM
HTC116 Cell Line
  IC50: > 100 µM
HCT116 cells; HCT116, hypoxic conditions, concentrations up to 1 mM
  dose response curve: failed to result in a recognizable dose response curve
HCT116 cells; [5]
  IC50: > 1000 µM
HCT116 cells; Homo sapiens, HCT-116, 72 h, HCT116, normoxic conditions (20% O2)
  IC50: 71.8 µM
